Assay results: ChEMBL document CHEMBL3638950, “Imidazo[5,1-f][1,2,4]triazines for the treatment of neurological disorders” (2013)

Molecular target: cGMP-dependent 3',5'-cyclic phosphodiesterase (Homo sapiens, UniProt O00408)
Assay: Inhibition Assay: The activity of the test substances on human full-length PDE2A3 enzyme was determined using the [3H]-cGMP scintillation proximity assay (SPA) modified from the Amersham TRKQ7100 instructions (GE Healthcare, USA).

Chain of cGMP-dependent 3',5'-cyclic phosphodiesterase (O00408 whole entry): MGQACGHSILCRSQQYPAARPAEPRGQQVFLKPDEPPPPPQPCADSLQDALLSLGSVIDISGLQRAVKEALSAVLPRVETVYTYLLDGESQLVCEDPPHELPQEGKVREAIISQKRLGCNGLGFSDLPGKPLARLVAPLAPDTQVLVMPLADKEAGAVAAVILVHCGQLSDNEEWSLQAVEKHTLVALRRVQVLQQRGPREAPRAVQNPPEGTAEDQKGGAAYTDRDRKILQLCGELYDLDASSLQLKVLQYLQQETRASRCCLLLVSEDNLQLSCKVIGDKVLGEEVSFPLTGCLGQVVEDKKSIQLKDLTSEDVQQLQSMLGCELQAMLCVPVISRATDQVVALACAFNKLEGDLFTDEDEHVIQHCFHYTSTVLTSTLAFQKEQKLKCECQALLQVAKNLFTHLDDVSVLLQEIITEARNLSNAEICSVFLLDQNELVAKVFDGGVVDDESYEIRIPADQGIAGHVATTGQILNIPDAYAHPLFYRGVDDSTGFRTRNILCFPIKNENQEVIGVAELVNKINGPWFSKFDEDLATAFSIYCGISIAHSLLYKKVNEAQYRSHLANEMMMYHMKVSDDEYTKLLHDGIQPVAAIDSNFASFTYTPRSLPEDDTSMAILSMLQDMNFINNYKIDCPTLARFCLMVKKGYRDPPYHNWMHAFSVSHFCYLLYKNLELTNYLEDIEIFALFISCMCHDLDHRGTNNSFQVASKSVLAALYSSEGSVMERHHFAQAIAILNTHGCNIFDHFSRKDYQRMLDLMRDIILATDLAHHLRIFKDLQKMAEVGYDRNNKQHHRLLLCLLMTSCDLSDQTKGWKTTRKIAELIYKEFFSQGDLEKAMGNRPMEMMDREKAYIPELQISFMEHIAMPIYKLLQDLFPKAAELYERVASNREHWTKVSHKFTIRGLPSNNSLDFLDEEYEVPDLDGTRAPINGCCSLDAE

IC50: 0.633 nM
SMILES: Cc1nc(-c2cnn(C)c2-c2ccc(C(F)(F)F)cc2)c2c(N3CC(F)C3)ncnn12
